Test results reported in the NIST ThermoML archive (doi:10.1016/j.fluid.2012.08.020).
Several values for one entry are separate records, joined by “and”; a condition that tells them apart may be missing. Identical values can stand only once.

Experiments:
[1] = molar enthalpy of vaporization or sublimation; settings: Liquid, Calvet Calorimetry

CC(C)(C)c1ccc(-c2ccccc2)cc1 [4-(1,1-dimethylethyl)-1,1'-biphenyl]
Liquid, Ebulliometric method (Recirculating still)
Settings | vapor or sublimation pressure [kPa]
448.41 K | 2.117
467.65 K | 4.346
482.23 K | 7.152
494.83 K | 10.66
502.69 K | 13.5
510.59 K | 16.96
518.4 K | 21.07
528.31 K | 27.41
537.1 K | 34.27
547.22 K | 43.86
557.74 K | 56.03
568.72 K | 71.52
580.98 K | 92.61
593.09 K | 118.1

Settings | Normal boiling temperature [°C]
Liquid, Ebulliometric method (Recirculating still) | 312.24

CC(C)c1cccc(-c2ccccc2)c1 [3-(1-Methylethyl)-1,1'-biphenyl]
Liquid
Settings | vapor or sublimation pressure
302.8 K, Transpiration method | 0.00045 kPa
303.3 K, Transpiration method | 0.00044 kPa
305.9 K, Transpiration method | 0.00061 kPa
307.8 K, Transpiration method | 0.0007 kPa
309.9 K, Transpiration method | 0.0009 kPa
312.9 K, Transpiration method | 0.00122 kPa
313.3 K, Transpiration method | 0.00116 kPa
315.9 K, Transpiration method | 0.00146 kPa
317.9 K, Transpiration method | 0.00187 kPa
319.9 K, Transpiration method | 0.00217 kPa
322.9 K, Transpiration method | 0.00265 kPa and 0.00276 kPa
323.3 K, Transpiration method | 0.0025 kPa
325.8 K, Transpiration method | 0.00378 kPa
327.8 K, Transpiration method | 0.00388 kPa
328 K, Transpiration method | 0.00408 kPa
329.8 K, Transpiration method | 0.00479 kPa
332.3 K, Transpiration method | 0.00644 kPa
332.8 K, Transpiration method | 0.0062 kPa
333.3 K, Transpiration method | 0.0064 kPa and 0.00674 kPa and 0.0065 kPa
333.4 K, Transpiration method | 0.00634 kPa and 0.00708 kPa
335.3 K, Transpiration method | 0.0078 kPa
335.8 K, Transpiration method | 0.00832 kPa
336.3 K, Transpiration method | 0.00811 kPa and 0.0082 kPa
337.3 K, Transpiration method | 0.00945 kPa
337.7 K, Transpiration method | 0.00887 kPa
338 K, Transpiration method | 0.00931 kPa
338.3 K, Transpiration method | 0.00975 kPa
340.3 K, Transpiration method | 0.01113 kPa
342.3 K, Transpiration method | 0.01244 kPa
343.1 K, Transpiration method | 0.01478 kPa and 0.01437 kPa
343.3 K, Transpiration method | 0.01376 kPa and 0.01441 kPa
345.3 K, Transpiration method | 0.01629 kPa and 0.01561 kPa
347.3 K, Transpiration method | 0.01952 kPa and 0.01755 kPa
348.3 K, Transpiration method | 0.01973 kPa and 0.02029 kPa and 0.02064 kPa
349.3 K, Transpiration method | 0.02026 kPa
351.3 K, Transpiration method | 0.02423 kPa
353.2 K, Transpiration method | 0.02884 kPa
353.3 K, Transpiration method | 0.02848 kPa
358.2 K, Transpiration method | 0.04134 kPa
434.53 K, Ebulliometric method (Recirculating still) | 2.17 kPa
452.99 K, Ebulliometric method (Recirculating still) | 4.346 kPa
467.03 K, Ebulliometric method (Recirculating still) | 7.152 kPa
479.19 K, Ebulliometric method (Recirculating still) | 10.66 kPa
486.79 K, Ebulliometric method (Recirculating still) | 13.5 kPa
494.39 K, Ebulliometric method (Recirculating still) | 16.96 kPa
501.93 K, Ebulliometric method (Recirculating still) | 21.07 kPa
511.48 K, Ebulliometric method (Recirculating still) | 27.41 kPa
519.96 K, Ebulliometric method (Recirculating still) | 34.27 kPa
529.73 K, Ebulliometric method (Recirculating still) | 43.86 kPa
539.88 K, Ebulliometric method (Recirculating still) | 56.03 kPa
550.47 K, Ebulliometric method (Recirculating still) | 71.52 kPa
562.29 K, Ebulliometric method (Recirculating still) | 92.61 kPa
573.95 K, Ebulliometric method (Recirculating still) | 118.1 kPa

Settings | Normal boiling temperature, Ebulliometric method (Recirculating still) [°C] | molar enthalpy, 323.15 K [kcal/mol] | molar enthalpy, 333.15 K [kcal/mol] | molar enthalpy, 343.15 K [kcal/mol] | molar enthalpy, 353.15 K [kcal/mol] | molar enthalpy, 363.15 K [kcal/mol] | molar enthalpy, 373.15 K [kcal/mol]
Liquid | 293.39 | – | – | – | – | – | –
[1] | – | 17.8 | 17.5 | 17.3 | 17.1 | 16.8 | 16.6

Cc1ccc(-c2ccc(C)cc2)cc1 [4,4'-dimethylbiphenyl]
Crystal, Transpiration method
Settings | vapor or sublimation pressure [kPa]
334.2 K | 0.00389
339.3 K | 0.00638
343.2 K | 0.00955
349.2 K | 0.01668
353.7 K | 0.02516
354.6 K | 0.02591
358.8 K | 0.03834
363.7 K | 0.05681
368.7 K | 0.08722
374.5 K | 0.1474
379.5 K | 0.2146

Cc1cccc(-c2ccccc2)c1 [3-methylbiphenyl]
Liquid, Transpiration method
Settings | vapor or sublimation pressure [kPa]
318.8 K | 0.00702
320.4 K | 0.00797
323.3 K | 0.01012
325.5 K | 0.01178
328.1 K | 0.01408
330.3 K | 0.01692
333.1 K | 0.02024
336.1 K | 0.02586
338.5 K | 0.03025
340.4 K | 0.03425
343.2 K | 0.04154
346.4 K | 0.05071
348.5 K | 0.05569
350.8 K | 0.06543
353.7 K | 0.07738
356.2 K | 0.09688
358.3 K | 0.1068
360.8 K | 0.1231
363.6 K | 0.1459
365.8 K | 0.1642

CC(C)(C)c1cccc(-c2ccccc2)c1 [3-(1,1-dimethylethyl)-1,1'-biphenyl]
Liquid
Settings | vapor or sublimation pressure [kPa]
323 K, Transpiration method | 0.00191
325.9 K, Transpiration method | 0.00244
328.5 K, Transpiration method | 0.00298
331 K, Transpiration method | 0.00368
333.4 K, Transpiration method | 0.00447
335.3 K, Transpiration method | 0.00514
338.2 K, Transpiration method | 0.00653
340.8 K, Transpiration method | 0.00801
343.3 K, Transpiration method | 0.00917
345.5 K, Transpiration method | 0.0113
348.1 K, Transpiration method | 0.01363
350.7 K, Transpiration method | 0.01622
353.4 K, Transpiration method | 0.01957
356 K, Transpiration method | 0.02333
358.5 K, Transpiration method | 0.0282
361.3 K, Transpiration method | 0.03303
440.79 K, Ebulliometric method (Recirculating still) | 2.117
459.53 K, Ebulliometric method (Recirculating still) | 4.346
473.75 K, Ebulliometric method (Recirculating still) | 7.152
486.07 K, Ebulliometric method (Recirculating still) | 10.66
493.76 K, Ebulliometric method (Recirculating still) | 13.5
501.46 K, Ebulliometric method (Recirculating still) | 16.96
509.1 K, Ebulliometric method (Recirculating still) | 21.07
518.78 K, Ebulliometric method (Recirculating still) | 27.41
527.38 K, Ebulliometric method (Recirculating still) | 34.27
537.26 K, Ebulliometric method (Recirculating still) | 43.86
547.55 K, Ebulliometric method (Recirculating still) | 56.03
558.29 K, Ebulliometric method (Recirculating still) | 71.52
570.25 K, Ebulliometric method (Recirculating still) | 92.61
582 K, Ebulliometric method (Recirculating still) | 118.1

Settings | Normal boiling temperature [°C]
Liquid, Ebulliometric method (Recirculating still) | 301.34

CC(C)(C)c1ccc(-c2ccc(C(C)(C)C)cc2)cc1 [4,4'-bis(1,1-dimethylethyl)-1,1'-biphenyl]
Crystal, Transpiration method
Settings | vapor or sublimation pressure [kPa]
335.5 K | 7.9e-05
338.5 K | 0.00011
341.5 K | 0.000146
343.5 K | 0.000176
348.2 K | 0.000291
351.5 K | 0.000425
353.9 K | 0.000537
358.5 K | 0.000887
363.7 K | 0.001398
365.5 K | 0.001697
368.6 K | 0.002328
370.5 K | 0.002679
373.5 K | 0.003653
373.7 K | 0.003396
375.7 K | 0.004092
378.2 K | 0.005541
380.4 K | 0.006527
382.5 K | 0.007664
384.7 K | 0.009379

Cc1ccccc1-c1ccccc1 [2-methylbiphenyl]
Liquid, Transpiration method
Settings | vapor or sublimation pressure [kPa]
301 K | 0.00376
303.5 K | 0.00477
305.9 K | 0.0056
308.4 K | 0.00692
310.9 K | 0.00851
313.4 K | 0.01043
315.9 K | 0.0128
318.4 K | 0.01527
320.8 K | 0.0183
323.3 K | 0.02232
325.8 K | 0.02641
328.3 K | 0.0314
330.7 K | 0.03763
333.2 K | 0.04446
335.7 K | 0.05183
338.1 K | 0.06106
340.6 K | 0.07203
343.1 K | 0.08401
345.6 K | 0.09811
348.1 K | 0.1141

Cc1ccc(-c2ccccc2)cc1 [4-methylbiphenyl]
Settings | Normal boiling temperature [°C]
Liquid, Ebulliometric method (Recirculating still) | 274.4
